In PubChem BioAssay AID2060625 (Molecular Pharmacology Branch, DTP, NCI, 2025):
pIC50: −log10 of the molar value.

Test system: 186277-243-T-J2-PDC spheroids with HUVEC/MSC, viability
Test: Anticancer human tumor 186277-243-T-J2-PDC patient-derived colon adenocarcinoma cell line growth inhibition [CLK]
Conditions: for pIC50: curve of first compound; for viability, T/C: stronger effect = lower value
Description: A high-throughput screen of multi-cell type tumor spheroids was designed to identify active combinations of […] and targeted small molecules. Complex spheroids include a stromal component modeled by human endothelial cells (HUVEC) and fibroblasts modeled by human mesenchymal stem cells (MSCs). The concentration ranges selected for each drug and investigational agent were based upon clinically achievable concentrations if the clinical Cmax of the agent was known.
Compounds. The drugs and investigational agents: cirtuvivint (SM08502; NSC835563), CC-671 (NSC850746), vemurafenib (NSC761431), tapotoclax (NSC804041), sotorasib (NSC818433), adagrasib (NSC831453), MRTX-1133 (NSC836407), BAY2416964 (NSC825713), copanlisib (NSC816437), inavolisib (NSC800729), abemaciclib (NSC768073), osimertinib (NSC779217), entinostat (NSC756642), eltanexor (KPT-8602, NSC794443), venetoclax (NSC766270), ceralasertib (NSC777638), bortezomib (NSC756655), olaparib (NSC753686), talazoparib (NSC767125), alisertib (NSC759677), peposertib (NSC802822), gemcitabine (NSC613327), 5-fluorouracil (NSC19893), SN-38 (NSC673596), oxaliplatin (NSC266046), paclitaxel (NSC125973), and doxorubicin (NSC123127), were obtained from the National Cancer Institute (NCI) Developmental Therapeutics Program Chemical Repository. The FDA-approved anticancer drug set is available from the Developmental Therapeutics Program at https://dtp.cancer.gov/organization/dscb/obtaining/available plates.htm. […] The stock solutions were prepared in dimethyl sulfoxide (DMSO, Sigma-Aldrich, St. Louis, MO, cat. D2650), except for the platinum complexes which were prepared in saline (Quality Biological, Gaithersburg, MD, cat. 114-055-101), at 800-fold the tested concentration and stored at -70 degrees C prior to their use. All drugs and investigational agents were tested over a range starting from a high concentration at or near the clinical Cmax and decreasing in half-log increments. If the clinical Cmax for an agent had not been determined, the highest concentration tested was 10 microM.
Cell Culture. All cells were maintained in an incubator at 37 degrees C and 5% CO2 with 95% humidity. The PDC lines were cultured according to standard operating procedures established by the NCI PDMR. Briefly, all PDCs were thawed and cultured in Matrigel-coated flasks prepared with a working solution of 1X Ham's F-12 nutrient mix, without supplementation (Invitrogen, Waltham, MA, cat. 11765054), 100 U/mL penicillin-streptomycin (Invitrogen, cat. 15140122), and 2.5% Matrigel (Corning Inc., Corning, NY, cat. 354248) for the first three passages. The 947758-054-R-J2-PDC line was cultured in 6B/Colon 1A media, which includes advanced DMEM/F-12 (Thermo Fisher Scientific, cat. 12634028), 10 mM HEPES (Thermo Fisher Scientific, cat. 15630080), 1X GlutaMAX supplement (Thermo Fisher Scientific, cat. 35050061), 0.1 mg/mL primocin (InvivoGen, cat. ant-pm-2), 10% defined fetal bovine serum, heat inactivated (HyClone Laboratories Inc., cat. SH30070.03HI), 1.25 mM N-Acetyl-L-cysteine (Sigma-Aldrich, cat. A9165), 10 mM nicotinamide (Sigma-Aldrich, cat. N0636), 1X B-27 supplement (Thermo Fisher Scientific, cat. 17504044), 1X N-2 supplement (Thermo Fisher Scientific, cat. 17502048), and 10 microM Y-27632 dihydrochloride (Tocris Bioscience, cat. 1254). The 876862-298-R-J1-PDC was cultured in 6E media, which includes all 6B/Colon 1A media components plus 50% L-WRN conditioned media (ATCC, cat. CRL-3276), 50 ng/mL recombinant human EGF recombinant protein (hEGF; Thermo Fisher Scientific, cat. PHG0311), 10 ng/mL recombinant human fibroblast growth factor 10 (hGFG-10; PeproTech, cat. 100-26), 1 ng/mL recombinant human fibroblast growth factor 2 (hFGF-2; PeproTech, cat. 100-18B), and 1 µM prostaglandin E2 (PGE2; Tocris, cat. 2296). The 227483-062-R1-J1-PDC line was cultured in Panc media, containing all 6E components except hFGF-2, with the addition of 500 nM SB-431542 (Selleckchem, cat. S1067) and 10 nM gastrin (Tocris, cat. 3006). […]
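Further: compound exposure lasted seven days before readout.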
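Wherever viability, T/C is given: 100% = DMSO vehicle control wells.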

Work on Cn1ncnc1[C@H]1c2n[nH]c(=O)c3cc(F)cc(c23)N[C@@H]1c1ccc(F)cc1 + CN1CCN(c2cc(C(=O)Nc3cc4cc(-c5cnn(C)c5)ccc4cn3)ccn2)CC1 yielded a pIC50 (second compound 0.0316 µM) of less than 7.00, a pIC50 (second compound 0.1 µM) of less than 7.00 and a pIC50 (second compound 0.316 µM) greater than 9.50. For the same molecule, the pIC50 (second compound 1 µM) was greater than 9.50, the pIC50 (second compound 3.16 µM) was greater than 9.50 and the pIC50 (second compound 10 µM) was greater than 9.50. The viability, T/C (second compound 0.0316 µM, first compound 0.000316 µM) was 86.9%, the viability, T/C (second compound 0.0316 µM, first compound 0.001 µM) was 104% and the viability, T/C (second compound 0.0316 µM, first compound 0.00316 µM) was 108%. It also gave a viability, T/C (second compound 0.0316 µM, first compound 0.01 µM) of 114%, a viability, T/C (second compound 0.0316 µM, first compound 0.0316 µM) of 95.1% and a viability, T/C (second compound 0.0316 µM, first compound 0.1 µM) of 113%. It also gave a viability, T/C (second compound 0.1 µM, first compound 0.000316 µM) of 73.9%, a viability, T/C (second compound 0.1 µM, first compound 0.001 µM) of 75.6% and a viability, T/C (second compound 0.1 µM, first compound 0.00316 µM) of 69%. For the same molecule, the viability, T/C (second compound 0.1 µM, first compound 0.01 µM) was 82.6%, the viability, T/C (second compound 0.1 µM, first compound 0.0316 µM) was 69.8% and the viability, T/C (second compound 0.1 µM, first compound 0.1 µM) was 58.6%. It also gave a viability, T/C (second compound 0.316 µM, first compound 0.000316 µM) of 20.9%, a viability, T/C (second compound 0.316 µM, first compound 0.001 µM) of 19.2% and a viability, T/C (second compound 0.316 µM, first compound 0.00316 µM) of 22.7%. The viability, T/C (second compound 0.316 µM, first compound 0.01 µM) was 20%, the viability, T/C (second compound 0.316 µM, first compound 0.0316 µM) was 21.9% and the viability, T/C (second compound 0.316 µM, first compound 0.1 µM) was 19.8%. It also gave a viability, T/C (second compound 1 µM, first compound 0.000316 µM) of 2.81%, a viability, T/C (second compound 1 µM, first compound 0.001 µM) of 0.25% and a viability, T/C (second compound 1 µM, first compound 0.00316 µM) of 0.86%. The viability, T/C (second compound 1 µM, first compound 0.01 µM) was 2.93%, the viability, T/C (second compound 1 µM, first compound 0.0316 µM) was 1.61% and the viability, T/C (second compound 1 µM, first compound 0.1 µM) was 0.53%. It also gave a viability, T/C (second compound 3.16 µM, first compound 0.000316 µM) of 2.49%, a viability, T/C (second compound 3.16 µM, first compound 0.001 µM) of 0.69% and a viability, T/C (second compound 3.16 µM, first compound 0.00316 µM) of 1.36%. The viability, T/C (second compound 3.16 µM, first compound 0.01 µM) was 1.46%, the viability, T/C (second compound 3.16 µM, first compound 0.0316 µM) was 2.26% and the viability, T/C (second compound 3.16 µM, first compound 0.1 µM) was 0.62%. It also gave a viability, T/C (second compound 10 µM, first compound 0.000316 µM) of 1.78%, a viability, T/C (second compound 10 µM, first compound 0.001 µM) of 0.48% and a viability, T/C (second compound 10 µM, first compound 0.00316 µM) of 0.42%. The viability, T/C (second compound 10 µM, first compound 0.01 µM) was 0.58%, the viability, T/C (second compound 10 µM, first compound 0.0316 µM) was 0.53% and the viability, T/C (second compound 10 µM, first compound 0.1 µM) was 0.46%.
